These results are taken from US12312359B2 (Vitae Pharmaceuticals, LLC, priority 2016, dated 2025).

The target of experiment [1] is T1, biotinylated wild-type menin and MLL-AF9 fusion protein (menin/MLL binding) (Homo sapiens, UniProt O00255).
T1 construct: made in house; host or cells: menin: E. coli; MLL-AF9-FLAG: HEK293 cells, used as cleared lysate
T1 sequence (O00255 1-610): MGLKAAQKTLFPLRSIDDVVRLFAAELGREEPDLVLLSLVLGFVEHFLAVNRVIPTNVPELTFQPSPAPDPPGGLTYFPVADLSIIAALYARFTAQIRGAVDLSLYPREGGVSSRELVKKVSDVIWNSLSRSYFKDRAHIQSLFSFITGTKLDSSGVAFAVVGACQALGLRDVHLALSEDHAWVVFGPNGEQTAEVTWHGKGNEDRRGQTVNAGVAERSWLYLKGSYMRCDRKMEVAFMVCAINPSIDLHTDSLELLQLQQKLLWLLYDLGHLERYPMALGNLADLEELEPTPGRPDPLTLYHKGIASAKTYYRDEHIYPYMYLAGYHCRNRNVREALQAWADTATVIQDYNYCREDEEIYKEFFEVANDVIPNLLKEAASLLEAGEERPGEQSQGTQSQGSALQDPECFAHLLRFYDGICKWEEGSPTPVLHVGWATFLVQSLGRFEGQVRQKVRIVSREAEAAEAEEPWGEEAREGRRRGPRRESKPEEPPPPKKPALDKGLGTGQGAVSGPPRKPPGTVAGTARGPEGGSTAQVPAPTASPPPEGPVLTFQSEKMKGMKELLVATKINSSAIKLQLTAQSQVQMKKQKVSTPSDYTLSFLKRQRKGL
In words: Assay 1: menin/MLL binding AlphaLISA assay, wild-type menin. Particulars: Table 30; column head does not say wild-type or mutated menin. In a few lines:
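Compound was preincubated 30 min at room temperature with biotinylated menin (5 nM) and MLL-AF9-FLAG lysate from HEK293 cells, pH 7.4 buffer with 5% DMSO and DTT. Bead-based Alpha signal after 60 min with streptavidin donor and anti-FLAG acceptor beads; four-parameter logistic fit gave IC50.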
(Bead proximity is the source of the signal in Alpha formats.)

In experiment [2] the test system is human acute monocytic leukemia cell line MV-4-11. In words: Assay 2: cell proliferation assay (ATP quantitation, CellTiter-Glo), MV-4-11. The class given is cell-based. Particulars: Homo sapiens, MV4-11, 72 h, MV-4-11 cells. The method in brief:
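MV-4-11 cells, 1.67×10^4 per well in medium with 10% FBS, were exposed to compound for 72 h at 37° C., 5% CO2; HL-60 cells served as toxicity control. Proliferation read as ATP content by CellTiter-Glo luminescence.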
On the technique in general: In ATP-based viability assays light output follows the ATP content of the culture.

Bounds are passed on as bounds.

As a reminder, the IC50 is the concentration that inhibits the measured activity by half. Lower therefore signals greater potency. A word on the EC50: it is the concentration needed to bring the measured effect to its halfway point. Read a high EC50 as weaker potency. In experiment [1], `CC(C)c1ncncc1-c1cc(F)ccc1Oc1cncnc1N1CC2(CCN(C(=O)Cc3ccc(C#N)cc3)C2)C1` [Example 149, 4-(2-(2-(5-(4-fluoro-2-(4-isopropylpyrimidin-5-yl)phenoxy)pyrimidin-4-yl)-2,6-diazaspiro[3.4]octan-6-yl)-2-oxoethyl)benzonitrile] showed an IC50 of less than 100 nM. In addition, the EC50 in experiment [2] is less than 100 nM.

With `CC(C)c1ncncc1-c1cc(F)ccc1Oc1cncnc1N1CCC2(CCN(Cc3ccc4c(c3)[nH]c(=O)n4C)C2)C1` (stereo not shown) [Example 150, 5-((7-(5-(4-fluoro-2-(4-isopropylpyrimidin-5-yl)phenoxy)pyrimidin-4-yl)-2,7-diazaspiro[4.4]nonan-2-yl)methyl)-1-methyl-1,3-dihydro-2H-benzo[d]imidazol-2-one], the IC50 in experiment [1] is less than 100 nM. Moreover, the EC50 in experiment [2] is less than 100 nM.

As for `N#Cc1ccc(-c2cc(F)ccc2Oc2cncnc2N2CC3(CN(CC4CCC(O)CC4)C3)C2)c(C2CC2)c1` (stereo not shown) [Example 151, 2-cyclopropyl-5′-fluoro-2′-((4-(6-((4-hydroxycyclohexyl)methyl)-2,6-diazaspiro[3.3]heptan-2-yl)pyrimidin-5-yl)oxy)-[1,1′-biphenyl]-4-carbonitrile], in experiment [1], the IC50 was less than 100 nM. Besides, the 50% effective concentration (EC50) in experiment [2] was not below 1000 nM.

As to `CC(C)c1ncncc1-c1cc(F)ccc1Oc1cncnc1N1CC2(CC(NCc3ccc(C#N)cc3)C2)C1` [Example 152, 4-(((2-(5-(4-fluoro-2-(4-isopropylpyrimidin-5-yl)phenoxy)pyrimidin-4-yl)-2-azaspiro[3.3]heptan-6-yl)amino)methyl) benzonitrile], in experiment [1], the IC50 is less than 100 nM. Besides, the half-maximal effective concentration (EC50) in experiment [2] was less than 100 nM.

On to `CC1CCC(C)N1C(=O)c1cc(F)ccc1Oc1cncnc1N1CCC2(CCN(Cc3ccc4[nH]c(=O)[nH]c4c3)C2)C1` (stereo not shown) [Example 153, 5-((7-(5-(2-(2,5-dimethylpyrrolidine-1-carbonyl)-4-fluorophenoxy)pyrimidin-4-yl)-2,7-diazaspiro[4.4]nonan-2-yl)methyl)-1,3-dihydro-2H-benzo[d]imidazol-2-one], for which the IC50 in experiment [1] is less than 100 nM. In experiment [2], the half-maximal effective concentration (EC50) fell in the range of 100 to 1000 nM.

Turning to `O=C(c1cc(F)ccc1Oc1cncnc1N1CCC2(CCN(Cc3ccc4[nH]c(=O)[nH]c4c3)C2)C1)N1CCCC1` (stereo not shown) [Example 154, 5-((7-(5-(4-fluoro-2-(pyrrolidine-1-carbonyl)phenoxy)pyrimidin-4-yl)-2,7-diazaspiro [4.4]nonan-2-yl)methyl)-1,3-dihydro-2H-benzo[d]imidazol-2-one], in experiment [1], the half-maximal inhibitory concentration (IC50) is less than 100 nM. This compound showed an EC50 in experiment [2] of 100 to 1000 nM.

`O=C(c1cc(F)ccc1Oc1cncnc1N1CCC2(CCN(Cc3ccc4[nH]c(=O)[nH]c4c3)C2)C1)N1CCOCC1` (stereo not shown) [Example 155, 5-((7-(5-(4-fluoro-2-(morpholine-4-carbonyl)phenoxy)pyrimidin-4-yl)-2,7-diaza-spiro[4.4]nonan-2-yl)methyl)-1,3-dihydro-2H-benzo[d]imidazol-2-one] gave an IC50 in experiment [1] of less than 100 nM. In addition, in experiment [2], the EC50 was 100 to 1000 nM.

Regarding `CCN(C(=O)C(C)C)c1cc(F)ccc1Oc1cncnc1N1CC2(CCN(CC3CCOCC3)C2)C1` [Example 156, N-ethyl-N-(5-fluoro-2-((4-(6-((tetrahydro-2H-pyran-4-yl)methyl)-2,6-diazaspiro[3.4]octan-2-yl)pyrimidin-5-yl)oxy)phenyl)iso-butyramide], in experiment [1], the half-maximal inhibitory concentration (IC50) is less than 100 nM. In experiment [2], this compound came in with an EC50 of 100 to 1000 nM.

`CCN(C(=O)C(C)C)c1cc(F)ccc1Oc1cncnc1N1CC2(CCN(CC3CCCCC3)C2)C1` [Example 158, N-(2-((4-(6-(cyclohexylmethyl)-2,6-diazaspiro[3.4]octan-2-yl)pyrimidin-5-yl)oxy)-5-fluorophenyl)-N-ethylisobutyramide]: in experiment [1], the concentration for half-maximal inhibition (IC50) was less than 100 nM. This compound also displayed an EC50 in experiment [2] of 100 to 1000 nM.

For the compound `CC(C)c1ncncc1-c1cc(F)ccc1Oc1cncnc1N1CC2(CC(NCc3ccccc3)CO2)C1` (stereo not shown) [Example 159, N-benzyl-2-(5-(4-fluoro-2-(4-isopropylpyrimidin-5-yl)phenoxy)pyrimidin-4-yl)-5-oxa-2-azaspiro[3.4]octan-7-amine], in experiment [1], the IC50 is less than 100 nM. Further, the EC50 in experiment [2] is 100 to 1000 nM.

`CC(C)c1ncncc1-c1cc(F)ccc1Oc1cncnc1N1CCC2(CCN(Cc3ccc4[nH]c(=O)[nH]c4c3)C2)C1` (stereo not shown) [Example 160, 5-((7-(5-(4-fluoro-2-(4-isopropylpyrimidin-5-yl)phenoxy)pyrimidin-4-yl)-2,7-diazaspiro[4.4]nonan-2-yl)methyl)-1,3-dihydro-2H-benzo[d]imidazol-2-one] displayed a half-maximal inhibitory concentration (IC50) in experiment [1] of less than 100 nM. For the same compound, the concentration for a half-maximal effect (EC50) in experiment [2] is less than 100 nM.

In the case of `C=C(C)c1ccccc1-c1cc(F)ccc1Oc1cncnc1N1CCC2(CCN(Cc3ccc4[nH]c(=O)[nH]c4c3)C2)C1` (stereo not shown) [Example 161, 5-((7-(5-((5-fluoro-2′-(prop-1-en-2-yl)-[1,1′-biphenyl]-2-yl)oxy)pyrimidin-4-yl)-2,7-diazaspiro[4.4]nonan-2-yl)methyl)-1,3-dihydro-2H-benzo[d]imidazol-2-one], the half-inhibitory concentration (IC50) in experiment [1] was less than 100 nM. This compound returned an EC50 in experiment [2] of less than 100 nM.

The compound `CC(C)Oc1ncccc1-c1cc(F)ccc1Oc1cncnc1N1CC2(CN(CC3CCOCC3)C2)C1` [Example 162, 2-(5-(4-fluoro-2-(2-isopropoxypyridin-3-yl)phenoxy)pyrimidin-4-yl)-6-((tetrahydro-2H-pyran-4-yl)methyl)-2,6-diazaspiro[3.3]heptane] came in with an IC50 in experiment [1] of less than 100 nM. In addition, the EC50 in experiment [2] fell in the range of 100 to 1000 nM.

Regarding `CC(C)N(C)C(=O)c1cc(F)ccc1Oc1cncnc1N1CCC2(CCN(Cc3ccc4c(c3)[nH]c(=O)n4C)C2)C1` (stereo not shown) [Example 163, 5-fluoro-N-isopropyl-N-methyl-2-((4-(7-((1-methyl-2-oxo-2,3-dihydro-1H-benzo[d]imidazol-5-yl)methyl)-2,7-diazaspiro[4.4]nonan-2-yl)pyrimidin-5-yl)oxy)benzamide], the half-maximal inhibitory concentration (IC50) in experiment [1] was less than 100 nM. The same compound returned a concentration giving a half-maximal response (EC50) in experiment [2] of 100 to 1000 nM.

With `CCOC(=O)N(C)c1cc(F)ccc1Oc1cncnc1N1CCC2(CCN(Cc3ccc4[nH]c(=O)[nH]c4c3)C2)C1` (stereo not shown) [Example 164, ethyl (5-fluoro-2-((4-(7-((2-oxo-2,3-dihydro-1H-benzo[d]imidazol-5-yl)methyl)-2,7-diazaspiro[4.4]nonan-2-yl)pyrimidin-5-yl)oxy)phenyl) (methyl)carbamate], in experiment [1], the half-inhibitory concentration (IC50) is less than 100 nM. Further, the EC50 in experiment [2] is 100 to 1000 nM.

In the case of `CN(C(=O)c1cc(F)ccc1Oc1cncnc1N1CCC2(CCN(Cc3ccc4[nH]c(=O)[nH]c4c3)C2)C1)C1CC1` (stereo not shown) [Example 165, N-cyclopropyl-5-fluoro-N-methyl-2-((4-(7-((2-oxo-2,3-dihydro-1H-benzo[d]imidazol-5-yl)methyl)-2,7-diazaspiro[4.4]nonan-2-yl)pyrimidin-5-yl)oxy)benzamide], in experiment [1], the IC50 was less than 100 nM. For the same compound, the EC50 in experiment [2] is not below 1000 nM.

In the case of `CN(C(=O)c1cc(F)ccc1Oc1cncnc1N1CCC2(CCN(Cc3ccc4[nH]c(=O)[nH]c4c3)C2)C1)c1ccccc1` (stereo not shown) [Example 166, 5-fluoro-N-methyl-2-((4-(7-((2-oxo-2,3-dihydro-1H-benzo[d]imidazol-5-yl)methyl)-2,7-diazaspiro[4.4]nonan-2-yl)pyrimidin-5-yl)oxy)-N-phenylbenzamide], the IC50 in experiment [1] was less than 100 nM. This compound also returned a concentration giving a half-maximal response (EC50) in experiment [2] of 100 to 1000 nM.
